# Data: US10294202B2, “Pyrrolidinones as herbicides” (FMC Corporation, priority 2013, dated 2019)
# Like-named read-outs stand apart in the source and are kept apart here.
# Columns and labels:
# [1] = test system: pigweed; assay: Test A pre-/postemergence herbicide test; assay type: in vivo, Amaranthus retroflexus; settings: for Pigweed plant response rating: Preemergence, visual rating on 0 to 100 scale (0 no effect, 100 complete control); for pest or weed control at 500 g/ha / pest or weed control at 125 g/ha: Amaranthus retroflexus, 240 h, read-out: Plant response rating, Pigweed
# Procedure, shortened: (§1)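 Visual injury ratings, 0 = no effect, 100 = complete control, taken ~10 days after treatment against untreated greenhouse controls. Preemergence: directed soil spray onto seeded loam/sand pots. Postemergence: spray onto plants at one- to two-leaf stage, 2–10 cm tall.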
# [2] = test system: wheat; assay: Test A pre-/postemergence herbicide test; assay type: in vivo, Triticum aestivum; settings: for Wheat plant response rating: Preemergence, visual rating on 0 to 100 scale (0 no effect, 100 complete control); for plant injury at 500 g/ha / plant injury at 125 g/ha: Triticum aestivum, 240 h, read-out: Plant response rating, Wheat
# Procedure, shortened: as §1
# [3] = test system: blackgrass; assay: Test C pre-/postemergence herbicide test; assay type: in vivo, Alopecurus myosuroides
# Description: (§2) Seeds of plant species selected from blackgrass (Alopecurus myosuroides), ryegrass, Italian (Italian ryegrass, Lolium multiflorum), wheat (winter wheat, Triticum aestivum), galium (catchweed bedstraw, Galium aparine), corn (Zea mays), crabgrass, large (large crabgrass, Digitaria sanguinalis), foxtail, giant (giant foxtail, Setaria faberii), johnsongrass (Sorghum halepense), lambsquarters (Chenopodium album), morningglory (Ipomoea coccinea), nutsedge, yellow (yellow nutsedge, Cyperus esculentus), pigweed (Amaranthus retroflexus), ragweed (common ragweed, Ambrosia elatior), soybean (Glycine max), barnyardgrass (Echinochloa crus-galli), oilseed rape (Brassica napus), waterhemp (common waterhemp, Amaranthus rudis), kochia (Kochia scoparia), oat, wild (wild oat, Avena fatua), surinam grass (Brachiaria decumbens), foxtail, green (green foxtail, Setaria viridis), goosegrass (Eleusine indica), bromegrass, downy (downy bromegrass, Bromus tectorum), nightshade (eastern black nightshade, Solanum ptycanthum), cocklebur (common cocklebur, Xanthium strumarium), cupgrass, woolly (woolly cupgrass, Eriochloa villosa), bermudagrass (Cynodon dactylon), sunflower, (common oilseed sunflower, Helianthus annuus), Russian thistle (Salsola kali) and velvetleaf (Abutilon theophrasti) were planted into a blend of loam soil and sand and treated preemergence with test chemicals formulated in a non-phytotoxic solvent mixture which included a surfactant. At the same time, plants selected from these crop and weed species and also barley (winter barley, Hordeum vulgare), […]), chickweed (common chickweed, Stellaria media), deadnettle (henbit deadnettle, Lamium amplexicaule), and canarygrass (littleseed canarygrass, Phalaris minor) were planted in pots containing Redi-Earth® planting medium (Scotts Company, 14111 Scottslawn Road, Marysville, Ohio 43041) comprising spaghnum peat moss, vermiculite, wetting agent and starter nutrients and treated with postemergence applications of test chemicals formulated in the same manner. Plants ranged in height from 2 to 18 cm (1- to 4-leaf stage) for postemergence treatments. Treated plants and controls were maintained in a greenhouse for 13 to 15 days, after which time all species were compared to controls and visually evaluated. Plant response ratings, summarized in Table C, are based on a scale of 0 to 100 where 0 is no effect and 100 is complete control. A dash (-) response means no test result.
# [4] = test system: ryegrass, Italian; assay: Test C pre-/postemergence herbicide test; assay type: in vivo, Lolium multiflorum
# Description: as §2
# [5] = test system: galium; assay: Test C pre-/postemergence herbicide test; assay type: in vivo, Galium aparine; settings: Preemergence; for Galium plant response rating: 31 g ai/ha
# Description: as §2
# [6] = test system: corn; assay: Test C pre-/postemergence herbicide test; assay type: in vivo, Zea mays
# Description: as §2
# [7] = test system: morningglory; assay: Test C pre-/postemergence herbicide test; assay type: in vivo, Ipomoea coccinea
# Description: as §2
# [8] = test system: nutsedge, yellow; assay: Test C pre-/postemergence herbicide test; assay type: in vivo, Cyperus esculentus
# Description: as §2
# [9] = test system: velvetleaf; assay: Test C pre-/postemergence herbicide test; assay type: in vivo, Abutilon theophrasti
# Description: as §2
# [10] = Postemergence, 500 g ai/ha, 0 to 100 scale (0 no effect, 100 complete control)
# [11] = preemergence, 500 g ai/ha, 0 to 100 scale
# [12] = Postemergence, 125 g ai/ha, 0 to 100 scale, 0 no effect, 100 complete control
# [13] = Preemergence, 62 g ai/ha, scale 0 to 100
# [14] = Preemergence, 125 g ai/ha, scale 0 to 100 (0 no effect, 100 complete control)
# [15] = Preemergence, 31 g ai/ha, scale 0 to 100 (0 no effect, 100 complete control)
# [16] = Preemergence, 250 g ai/ha, scale 0 to 100 (0 no effect, 100 complete control)
# [17] = scale 0 to 100 (0 no effect, 100 complete control)
# [18] = 250 g ai/ha, scale 0 to 100 (0 no effect, 100 complete control)
# [19] = Postemergence, 125 g ai/ha, 0 to 100 scale, 0 is no effect, 100 is complete control
# [20] = post-emergence, Postemergence, 500 g ai/ha, 0 to 100 scale (0 no effect, 100 complete control)
# [21] = pre-emergence, preemergence, 500 g ai/ha, 0 to 100 scale
# [22] = Postemergence, 31 g ai/ha, scale 0 (no effect) to 100 (complete control)
# [23] = Postemergence, 62 g ai/ha, scale 0 to 100 (0 no effect, 100 complete control)
# [24] = Postemergence, 125 g ai/ha, scale 0 to 100 (0 no effect, 100 complete control)
# [25] = Postemergence, 250 g ai/ha, scale 0 to 100 (0 no effect, 100 complete control)
# [26] = post-emergence, Postemergence, 125 g ai/ha, 0 to 100 scale, 0 no effect, 100 complete control
smiles,measurement,setting,value
O=C1NCC(c2ccc(F)c(F)c2)C1C(=O)Nc1ccccc1C(F)(F)F (racemic) [Compound 6],"Plant response rating, Pigweed",[1]; [10],10
same,Pigweed plant response rating,[1]; 125 g ai/ha,0
same,"Plant response rating, Pigweed",[1]; [11],0
same,"Plant response rating, Wheat",[2]; [10],0
same,Wheat plant response rating,[2]; 125 g ai/ha,0
same,"Plant response rating, Wheat",[2]; [11],0
O=C1NCC(c2ccc(Cl)c(Cl)c2)C1C(=O)Nc1ccccc1F (racemic) [Compound 14],"Plant response rating, Pigweed",[1]; [12],0
same,"Plant response rating, Pigweed",[1]; [10],0
same,Pigweed plant response rating,[1]; 125 g ai/ha,0
same,"Plant response rating, Pigweed",[1]; [11],20
same,"Plant response rating, Wheat",[2]; [12],0
same,"Plant response rating, Wheat",[2]; [10],0
same,Wheat plant response rating,[2]; 125 g ai/ha,0
same,"Plant response rating, Wheat",[2]; [11],0
same,"Plant response rating, Blackgrass",[3]; [13],0
same,"Plant response rating, Blackgrass",[3]; [14],0
same,Blackgrass plant response rating,[3]; [15],0
same,"Plant response rating, Blackgrass",[3]; [16],0
same,"Plant response rating, Ryegrass, Italian",[4]; [13],0
same,"Plant response rating, Ryegrass, Italian",[4]; [14],0
same,"Plant response rating, Galium","[5]; 62 g ai/ha, scale 0 to 100",0
same,"Plant response rating, Galium","[5]; 125 g ai/ha, scale 0 to 100 (0 no effect, 100 complete control)",70
same,Galium plant response rating,[5]; [17],0
same,"Plant response rating, Galium",[5]; [18],85
same,"Plant response rating, Corn",[6]; [13],0
same,"Plant response rating, Corn",[6]; [14],0
same,Corn plant response rating,[6]; [15],0
same,"Plant response rating, Corn",[6]; [16],0
same,"Plant response rating, Morningglory",[7]; [13],0
same,"Plant response rating, Morningglory",[7]; [14],0
same,"Plant response rating, Nutsedge, Yellow",[8]; [13],0
same,"Plant response rating, Nutsedge, Yellow",[8]; [14],0
same,"Plant response rating, Velvetleaf",[9]; [13],0
same,"Plant response rating, Velvetleaf",[9]; [14],0
O=C1NCC(c2cccc(C(F)F)c2)C1C(=O)Nc1ccccc1F (racemic) [Compound 210],"Plant response rating, Pigweed","[1]; 125 g ai/ha, visual rating, 0 to 100 scale, 0 no effect, 100 complete control, approximately 10 days, preemergence",0
same,"Plant response rating, Pigweed",[1]; [19],0
same,"Pigweed plant response rating (0 to 100 scale, 0 is no effect, 100 is complete control)","[1]; Postemergence, 500 g ai/ha",20
same,"Plant response rating, Pigweed","[1]; preemergence, 500 g ai/ha, 0 to 100 scale, 0 is no effect and 100 is complete control",50
same,"Plant response rating, Wheat",[2]; [19],0
same,"Wheat plant response rating (0 to 100 scale, 0 is no effect, 100 is complete control)","[2]; Postemergence, 500 g ai/ha",50
"O=C1NCCC1C(=O)N(c1ccc(F)c(F)c1)c1ccccc1F (centres unmarked) [Compound 5, N-(3,4-difluorophenyl)-N-(2-fluorophenyl)-2-oxo-3-pyrrolidinecarboxamide]",pest or weed control at 500 g/ha,[1]; [20],0%
same,pest or weed control at 500 g/ha,[1]; [21],0%
same,Pigweed plant response rating,[1]; 125 g ai/ha,0
same,Wheat plant response rating,[2]; 125 g ai/ha,0
same,plant injury at 500 g/ha,[2]; [20],0%
same,plant injury at 500 g/ha,[2]; [21],0%
same,"Plant response rating, Blackgrass",[3]; [13],0
same,"Plant response rating, Blackgrass",[3]; [14],0
same,Blackgrass plant response rating,[3]; [15],0
same,"Plant response rating, Blackgrass",[3]; [16],30
same,"Plant response rating, Ryegrass, Italian",[4]; [13],0
same,"Plant response rating, Ryegrass, Italian",[4]; [14],0
same,"Plant response rating, Galium","[5]; 62 g ai/ha, scale 0 to 100",5
same,Galium plant response rating,[5]; [17],0
same,"Plant response rating, Galium",[5]; [18],40
same,"Plant response rating, Corn",[6]; [13],0
same,"Plant response rating, Corn",[6]; [14],0
same,Corn plant response rating,[6]; [15],0
same,"Plant response rating, Corn",[6]; [16],0
same,"Plant response rating, Morningglory",[7]; [13],0
same,"Plant response rating, Morningglory",[7]; [14],0
same,"Plant response rating, Nutsedge, Yellow",[8]; [13],0
same,"Plant response rating, Nutsedge, Yellow",[8]; [14],0
same,"Plant response rating, Velvetleaf",[9]; [13],0
same,"Plant response rating, Velvetleaf",[9]; [14],0
O=C1NCC(c2cc(F)c(F)cc2F)C1C(=O)Nc1cccc(F)c1F (centres unmarked) [Compound 50],"Plant response rating, Pigweed",[1]; [12],0
same,"Plant response rating, Pigweed",[1]; [10],0
same,Pigweed plant response rating,[1]; 125 g ai/ha,0
same,"Plant response rating, Pigweed",[1]; [11],0
same,"Plant response rating, Wheat",[2]; [12],0
same,"Plant response rating, Wheat",[2]; [10],0
same,Wheat plant response rating,[2]; 125 g ai/ha,0
same,"Plant response rating, Wheat",[2]; [11],0
same,"Plant response rating, Blackgrass",[3]; [22],0
same,"Plant response rating, Blackgrass",[3]; [23],0
same,"Plant response rating, Blackgrass",[3]; [24],0
same,"Plant response rating, Blackgrass",[3]; [25],0
same,"Plant response rating, Ryegrass, Italian",[4]; [22],0
same,"Plant response rating, Ryegrass, Italian",[4]; [23],0
same,"Plant response rating, Ryegrass, Italian",[4]; [24],0
same,"Plant response rating, Ryegrass, Italian",[4]; [25],0
same,"Plant response rating, Corn",[6]; [22],0
same,"Plant response rating, Corn",[6]; [23],0
same,"Plant response rating, Corn",[6]; [24],5
same,"Plant response rating, Corn",[6]; [25],5
same,"Plant response rating, Morningglory",[7]; [22],0
same,"Plant response rating, Morningglory",[7]; [23],0
same,"Plant response rating, Morningglory",[7]; [24],10
same,"Plant response rating, Morningglory",[7]; [25],10
same,"Plant response rating, Nutsedge, Yellow",[8]; [22],0
same,"Plant response rating, Nutsedge, Yellow",[8]; [23],0
same,"Plant response rating, Nutsedge, Yellow",[8]; [24],0
same,"Plant response rating, Nutsedge, Yellow",[8]; [25],5
same,"Plant response rating, Velvetleaf",[9]; [22],0
same,"Plant response rating, Velvetleaf",[9]; [23],15
same,"Plant response rating, Velvetleaf",[9]; [24],25
same,"Plant response rating, Velvetleaf",[9]; [25],45
"O=C1NCC(Br)(c2ccccc2)C1C(=O)Nc1ccccc1F (centres unmarked) [Compound 92, 4-bromo-N-(2-fluorophenyl)-2-oxo-4-phenyl-3-pyrrolidinecarboxamide]",pest or weed control at 125 g/ha,[1]; [26],0%
same,pest or weed control at 500 g/ha,[1]; [20],0%
same,pest or weed control at 500 g/ha,[1]; [21],0%
same,Pigweed plant response rating,[1]; 125 g ai/ha,0
same,Wheat plant response rating,[2]; 125 g ai/ha,0
same,plant injury at 125 g/ha,[2]; [26],0%
same,plant injury at 500 g/ha,[2]; [20],0%
same,plant injury at 500 g/ha,[2]; [21],0%
"O=C1NCC(c2ccccc2)C1(Br)C(=O)Nc1ccccc1F (centres unmarked) [Compound 93, 3-bromo-N-(2-fluorophenyl)-2-oxo-4-phenyl-3-pyrrolidinecarboxamide]",pest or weed control at 125 g/ha,[1]; [26],0%
same,pest or weed control at 500 g/ha,[1]; [20],0%
same,pest or weed control at 500 g/ha,[1]; [21],0%
same,Pigweed plant response rating,[1]; 125 g ai/ha,0
same,Wheat plant response rating,[2]; 125 g ai/ha,0
same,plant injury at 125 g/ha,[2]; [26],0%
same,plant injury at 500 g/ha,[2]; [20],0%
same,plant injury at 500 g/ha,[2]; [21],0%
